Calls of active or inactive are those of the source.
How the values were obtained:
Vero = test: mammalian cell viability reduction – secondary assay, cytotoxicity control for West Nile virus antiviral project, dose response (AID 1650); type: functional; conditions: Chlorocebus sabaeus
[1] = biological target: T1, Ubiquitin-conjugating enzyme E2 N (Homo sapiens, UniProt P61088); type: functional;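 note: Dose-response confirmation in a TR-FRET assay detecting UBC13-driven polyubiquitin chain formation, inhibition measured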
T1 sequence (P61088 whole entry): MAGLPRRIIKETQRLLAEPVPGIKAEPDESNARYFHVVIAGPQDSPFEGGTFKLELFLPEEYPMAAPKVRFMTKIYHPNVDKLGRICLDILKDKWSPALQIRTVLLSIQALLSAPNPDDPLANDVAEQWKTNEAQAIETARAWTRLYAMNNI

Estrogen receptor = biological target: T2, Estrogen receptor (Homo sapiens, UniProt P03372);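 note: potency for inhibiting coactivator peptide recruitment to the receptor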
T2 sequence (P03372 whole entry): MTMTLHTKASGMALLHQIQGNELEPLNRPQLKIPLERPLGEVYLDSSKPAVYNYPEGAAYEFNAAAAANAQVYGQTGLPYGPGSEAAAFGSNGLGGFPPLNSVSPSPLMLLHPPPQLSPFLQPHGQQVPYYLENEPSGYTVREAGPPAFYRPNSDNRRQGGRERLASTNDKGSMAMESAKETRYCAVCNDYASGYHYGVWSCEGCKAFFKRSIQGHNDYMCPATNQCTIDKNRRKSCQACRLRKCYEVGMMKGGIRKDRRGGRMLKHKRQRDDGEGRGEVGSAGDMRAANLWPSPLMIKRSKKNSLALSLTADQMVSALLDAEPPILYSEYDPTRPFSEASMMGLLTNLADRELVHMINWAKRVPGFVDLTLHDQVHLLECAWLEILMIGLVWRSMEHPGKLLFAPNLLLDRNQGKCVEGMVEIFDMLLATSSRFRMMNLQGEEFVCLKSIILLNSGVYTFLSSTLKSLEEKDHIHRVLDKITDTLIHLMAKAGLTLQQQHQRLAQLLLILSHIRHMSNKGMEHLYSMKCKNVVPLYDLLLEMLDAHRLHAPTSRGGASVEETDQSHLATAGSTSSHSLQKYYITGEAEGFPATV

Estrogen receptor beta = Estrogen receptor beta (Homo sapiens, UniProt Q92731);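 note: recombinant ER-beta bound to coactivator SRC1 peptide in presence of estradiol agonist; inhibitors block coactivator peptide binding and lower the FRET signal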
[2] = biological target: Eukaryotic translation initiation factor 4H (Homo sapiens, UniProt Q15056); test: eIF4H binding inhibition – biochemical, uHTS, fluorescence polarization, translation initiation inhibitor project, primary screen (AID 2012)
[3] = biological target: Polyadenylate-binding protein 1 (Homo sapiens, UniProt P11940); test: blockers of PABP interaction with poly(A) – biochemical, fluorescence polarization, […] (AID 2014)
[4] = biological target: T3, Lytic switch protein BZLF1 (Epstein-Barr virus (strain B95-8) (HHV-4) (Human herpesvirus 4), UniProt P03206); test: inhibition of BZLF1 ZTA DNA binding – biochemical, fluorescence polarization, Epstein-Barr virus, 1536-well, counter-screen for EBNA-1 inhibitor project, dose response (AID 2377); design: species or system human gammaherpesvirus 4;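 note: fluorescence polarization of Cy5-labelled ZRE DNA probe bound by purified Zta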
T3 sequence (P03206 whole entry): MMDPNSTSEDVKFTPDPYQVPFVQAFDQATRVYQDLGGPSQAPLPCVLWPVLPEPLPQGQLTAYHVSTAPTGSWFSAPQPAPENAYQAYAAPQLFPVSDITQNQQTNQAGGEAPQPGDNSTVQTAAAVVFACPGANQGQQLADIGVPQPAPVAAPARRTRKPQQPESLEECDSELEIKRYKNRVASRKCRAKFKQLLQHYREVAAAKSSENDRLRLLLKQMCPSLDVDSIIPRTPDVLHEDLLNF

[5] = biological target: T4, Epstein-Barr nuclear antigen 1 (Epstein-Barr virus (strain B95-8) (HHV-4) (Human herpesvirus 4), UniProt P03211); test: inhibition of EBV nuclear antigen 1 DNA binding – biochemical, fluorescence polarization, 1536-well, dose response (AID 2381); design: species or system human gammaherpesvirus 4;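 note: fluorescence polarization of a Cy5 DNA probe bound by EBNA-1 protein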
T4 sequence (P03211 whole entry): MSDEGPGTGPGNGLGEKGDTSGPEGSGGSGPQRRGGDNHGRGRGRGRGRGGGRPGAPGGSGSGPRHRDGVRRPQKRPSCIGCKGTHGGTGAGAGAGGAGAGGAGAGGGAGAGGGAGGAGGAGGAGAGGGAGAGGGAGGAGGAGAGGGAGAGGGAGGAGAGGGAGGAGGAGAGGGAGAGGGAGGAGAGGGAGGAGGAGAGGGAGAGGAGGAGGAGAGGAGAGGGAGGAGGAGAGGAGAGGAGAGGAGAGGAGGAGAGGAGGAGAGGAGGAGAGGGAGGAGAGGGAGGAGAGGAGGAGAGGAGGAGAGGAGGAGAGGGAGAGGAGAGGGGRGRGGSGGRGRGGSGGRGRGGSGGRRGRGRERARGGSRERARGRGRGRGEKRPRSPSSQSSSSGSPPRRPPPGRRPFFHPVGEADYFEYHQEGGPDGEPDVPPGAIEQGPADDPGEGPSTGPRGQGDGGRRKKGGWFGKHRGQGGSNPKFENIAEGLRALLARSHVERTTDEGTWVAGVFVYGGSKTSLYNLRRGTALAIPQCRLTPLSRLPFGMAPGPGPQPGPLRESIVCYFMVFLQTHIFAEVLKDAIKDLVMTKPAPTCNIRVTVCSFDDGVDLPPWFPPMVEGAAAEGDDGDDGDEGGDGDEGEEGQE

HT-1080 = test: HT1080 cell viability loss – fluorescence readout (AID 620); type: functional, cell-based; conditions: Homo sapiens
[6] = toxicity toward HepG2 liver cells – cell-based, plate reader, cherry-pick, antagonist series, cytotoxicity control, dose response (AID 743416); type: functional
[7] = biological target: Luciferin 4-monooxygenase (Photinus pyralis, UniProt P08659); test: Counter Screen for Luciferase-based Assay Positives. [Related pubchem assays: 620, 618, 411 ]
[8] = biological target: T5, Heat shock factor protein 1 (Mus musculus, UniProt P38532); test: decrease of HSF1-responsive luciferase luminescence – cell-based, NIH3T3, dose retest, confirmation (AID 2382); type: functional;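 note: NIH3T3 fibroblasts with HSF1-driven luciferase reporter stressed by proteasome inhibitor MG132; luminescence from HSF1-driven luciferase expression after 8 hours of MG132 stress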
T5 sequence (P38532 whole entry): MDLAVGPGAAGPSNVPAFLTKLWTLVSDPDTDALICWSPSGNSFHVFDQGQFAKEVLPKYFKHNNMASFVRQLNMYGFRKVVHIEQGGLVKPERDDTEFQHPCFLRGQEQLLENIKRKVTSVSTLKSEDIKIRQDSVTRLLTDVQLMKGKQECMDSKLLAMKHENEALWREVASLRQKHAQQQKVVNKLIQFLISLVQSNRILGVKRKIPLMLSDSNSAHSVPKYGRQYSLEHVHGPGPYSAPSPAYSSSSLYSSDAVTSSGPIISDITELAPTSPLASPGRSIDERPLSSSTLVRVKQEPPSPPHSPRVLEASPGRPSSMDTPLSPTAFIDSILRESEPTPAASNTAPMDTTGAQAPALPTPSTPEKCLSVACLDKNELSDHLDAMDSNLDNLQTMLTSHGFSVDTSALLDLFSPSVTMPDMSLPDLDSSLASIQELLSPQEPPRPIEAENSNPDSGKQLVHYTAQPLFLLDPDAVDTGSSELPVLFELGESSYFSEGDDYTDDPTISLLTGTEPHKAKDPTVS

[9] = blockers of bursicon-stimulated LGR2 cAMP reporter – cell-based, HEK293, CRE-luciferase reporter, cherry pick, set 2, dose response (AID 743343); type: functional;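 note: transfected cells were stimulated with diluted bursicon conditioned medium after compound addition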
[10] = blockade of melanocortin 4 receptor signaling – cell-based, plate reader, cherry pick, counter-screen for LGR2 antagonist project, dose response (AID 743444); type: functional;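 note: transfected HEK 293 cells stimulated with alpha-MSH peptide; potency of inhibitors of the alpha-MSH evoked signal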
[11] = A549 cell cytotoxicity, dose response, cytotoxicity control, plate reader, cherry-pick, antagonist series (AID 743412); type: functional, cell-based
[12] = biological target: Melanin-concentrating hormone receptor 1 (Homo sapiens, UniProt Q99705); test: Late-stage fluorescence-based counterscreen for antagonists of the G-protein coupled receptor 7 (GPR7): cell-based dose response assay to identify antagonists of the melanin-concentrating hormone receptor 1 (MCHR1). [Related pubchem assays (depositor defined):AID1861, AID1880, AID1952, AID2148, AID2251, AID2257, AID485339]; type: functional;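 note: stimulated with 30 nM MCH peptide agonist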
Chain of Melanin-concentrating hormone receptor 1 (Q99705 whole entry): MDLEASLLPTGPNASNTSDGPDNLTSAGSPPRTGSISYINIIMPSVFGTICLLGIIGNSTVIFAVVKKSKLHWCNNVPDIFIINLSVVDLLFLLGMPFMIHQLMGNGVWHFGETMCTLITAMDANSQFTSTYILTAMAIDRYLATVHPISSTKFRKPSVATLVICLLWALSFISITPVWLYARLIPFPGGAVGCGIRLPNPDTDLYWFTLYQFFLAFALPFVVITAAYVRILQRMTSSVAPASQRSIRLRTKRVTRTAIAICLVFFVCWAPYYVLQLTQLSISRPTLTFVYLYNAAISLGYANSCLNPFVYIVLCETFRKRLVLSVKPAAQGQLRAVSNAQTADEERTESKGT

Chain of Polyadenylate-binding protein 1 (P11940 whole entry): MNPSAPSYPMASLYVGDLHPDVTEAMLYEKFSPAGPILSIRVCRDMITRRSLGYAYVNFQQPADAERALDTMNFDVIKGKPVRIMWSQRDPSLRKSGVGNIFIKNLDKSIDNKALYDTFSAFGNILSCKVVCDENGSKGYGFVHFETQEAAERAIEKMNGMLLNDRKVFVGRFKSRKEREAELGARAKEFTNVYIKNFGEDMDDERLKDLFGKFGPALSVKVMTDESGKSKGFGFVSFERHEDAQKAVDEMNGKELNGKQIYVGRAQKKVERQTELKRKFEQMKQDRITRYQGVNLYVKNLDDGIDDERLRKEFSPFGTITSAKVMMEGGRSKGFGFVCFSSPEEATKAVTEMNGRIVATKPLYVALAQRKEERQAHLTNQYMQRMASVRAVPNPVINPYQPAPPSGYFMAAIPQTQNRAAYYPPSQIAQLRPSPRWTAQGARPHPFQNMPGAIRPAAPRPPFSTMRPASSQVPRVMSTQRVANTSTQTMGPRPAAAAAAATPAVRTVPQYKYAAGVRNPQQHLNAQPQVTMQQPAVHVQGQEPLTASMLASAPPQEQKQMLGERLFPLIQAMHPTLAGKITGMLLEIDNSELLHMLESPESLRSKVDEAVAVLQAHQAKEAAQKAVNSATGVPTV
Chain of Luciferin 4-monooxygenase (P08659 whole entry): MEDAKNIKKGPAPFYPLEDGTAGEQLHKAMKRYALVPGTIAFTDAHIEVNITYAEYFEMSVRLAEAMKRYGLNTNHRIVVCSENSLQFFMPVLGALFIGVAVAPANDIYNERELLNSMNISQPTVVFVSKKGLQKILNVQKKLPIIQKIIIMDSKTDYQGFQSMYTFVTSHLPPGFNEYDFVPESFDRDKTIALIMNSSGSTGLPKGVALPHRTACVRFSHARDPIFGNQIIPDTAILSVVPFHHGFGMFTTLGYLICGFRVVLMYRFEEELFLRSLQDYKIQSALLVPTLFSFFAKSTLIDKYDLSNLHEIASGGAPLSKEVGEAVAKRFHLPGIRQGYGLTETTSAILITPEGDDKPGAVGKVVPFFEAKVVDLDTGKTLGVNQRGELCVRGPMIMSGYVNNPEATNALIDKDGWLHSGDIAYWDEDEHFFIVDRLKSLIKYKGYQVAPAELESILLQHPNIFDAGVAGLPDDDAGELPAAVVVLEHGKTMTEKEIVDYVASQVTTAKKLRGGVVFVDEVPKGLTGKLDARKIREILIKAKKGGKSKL
Chain of Estrogen receptor beta (Q92731 whole entry): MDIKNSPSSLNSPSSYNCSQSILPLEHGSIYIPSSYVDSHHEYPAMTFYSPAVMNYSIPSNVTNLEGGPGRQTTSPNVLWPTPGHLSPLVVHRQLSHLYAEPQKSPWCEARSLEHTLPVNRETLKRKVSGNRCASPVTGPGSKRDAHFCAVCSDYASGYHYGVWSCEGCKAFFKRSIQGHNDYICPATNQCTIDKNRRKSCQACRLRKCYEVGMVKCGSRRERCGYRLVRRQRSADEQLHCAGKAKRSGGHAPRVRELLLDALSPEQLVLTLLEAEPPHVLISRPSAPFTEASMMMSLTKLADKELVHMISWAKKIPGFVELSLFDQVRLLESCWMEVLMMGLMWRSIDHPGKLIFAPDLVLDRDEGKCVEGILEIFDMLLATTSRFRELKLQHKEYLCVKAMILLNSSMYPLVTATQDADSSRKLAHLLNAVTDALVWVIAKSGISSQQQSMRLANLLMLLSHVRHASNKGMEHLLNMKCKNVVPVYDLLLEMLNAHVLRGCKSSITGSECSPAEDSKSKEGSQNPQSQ

SMILES: CC1CC(C)CN(CCCNC(=O)C2CCN(c3ncnc4c3sc3cccc(F)c34)CC2)C1 (stereo unspecified)
- CC50 (Vero): > 100 µM (active)
- IC50 [1]: > 20 µM (inactive)

SMILES: Cn1c(=O)[nH]c(=O)c2c1nc1n2CCCN1CCc1ccccc1
- IC50 (Estrogen receptor): > 50 µM (not active)
- IC50 (Estrogen receptor beta): > 50 µM (not active)

SMILES: Cc1ccccc1SCC(=O)N1CCN(c2ccc(C(F)(F)F)cn2)CC1
- IC50 [2]: > 100 µM (inactive)
- IC50 [3]: > 100 µM (inactive)

SMILES: CCN=c1ccc(Br)cc(C(=O)/C=C/c2ccccc2Cl)c1O
- IC50 (Estrogen receptor): 3.11 µM (active)

SMILES: Cc1ccc(C(=O)OCC(=O)NC2CCCCC2)o1
- IC50 [2]: 51 µM (active)
- IC50 [3]: 63 µM (active)

SMILES: COc1ccc(Cl)cc1NC(=O)CN1CCN(S(=O)(=O)c2ccc(F)cc2)CC1
- IC50 [4]: > 111 µM (not active)
- IC50 [5]: 16.4 µM (not active)

SMILES: Cc1oc(-c2ccc3c(c2)OCCO3)cc1C(=O)O
- EC50 (HT-1080): > 50 µM (not active)
- AC50 [6]: > 52 µM (inactive)
- EC50 [7]: 1.25 µM (active)
- EC50 [8]: 0.312 µM (active)
- AC50 [9]: 7.05 µM (active)
- AC50 [10]: 7.49 µM (active)
- AC50 [11]: > 52 µM (inactive)

SMILES: CC(C)c1ccc(-n2ncc(Cl)c(Oc3ccc(OC(F)(F)F)cc3)c2=O)cc1
- IC50 [12]: 12 µM (inactive)

SMILES: C/C(=N\NC(=O)c1c(Br)cnn1C)c1ccc(NC(=O)c2ccc(F)cc2)cc1
- IC50 [4]: > 111 µM (not active)
- IC50 [5]: 3.62 µM (active)
